Measured values from patent US9823260B2, “Method to increase bioavailability of the delta-opioid receptor for management of pain and neuropsychiatric disorders” (priority 2014, dated 2017).

Columns and labels:
Format in all cases: in vivo
male C57BL6J mice [1] = test: Mechanical allodynia test
Method: The first three graphs in FIG. 2 show the function response of DOR on the surface. An EPAC FRET sensor was used with live cell imaging under physiologic conditions of 37° C. The modulation of the cAMP activity was determined by performing a ratiometric analysis of an the donor fluorophore (Cyan Fluorescent Protein) image divided by the FRET image yielding a blue color for low cAMP and red for high cAMP. DOR was concomitantly visualized by fluorescent tagging. […] The two images on the bottom-right of FIG. 2 show data in an experiment in which mechanical allodynia and tail withdrawal latency was performed in male C57BL6J mice 9-10 weeks old to determine the effects of the DOR agonist SNC-80 in the presence or absence of PTEN inhibition. […] All mice received SNC-80 (10 mg/kg IP). […]
(§1) In this experiment, thermal nociception was determined by using the warm water tail withdrawal assay, with a cut-off of 12 s at 52.5° C. water temperature. […] Four hours post-injection, tail immersion responses were determined and mice were injected with vehicle or SNC80 (10 mg/kg IP). […]
as §1, with “As shown next in FIG. 12 (left),” for “In this experiment,”

mice = test: Mechanical hyperalgesia in a CFA model for chronic pain; settings: CFA 72 hours; bpv(phen) 10 mg/kg SC, four hours later SNC 80 3 mg/kg IP
Method: (§2) In this experiment, thermal nociception was determined by using the warm water tail withdrawal assay, with a cut-off of 12 s at 52.5° C. water temperature. After 3 basal measurements, mice were injected with vehicle or bpv(phen)(10 mg/kg SC), and returned to their home cages. Four hours post-injection, tail immersion responses were determined and mice were injected with vehicle or SNC80 (10 mg/kg IP). They were subsequently tested every 15 minutes for 90 minutes. All animals were male C57b16J mice of 9-10 weeks of age, n=8 per group. […] Mechanical allodynia was tested using standard protocols (such as the protocols disclosed by Pradhan et al., 2009, PMID: 1941254) on male C57b16J mice 9-10 weeks old, n=8 per group. Mice were injected with vehicle or bpv(phen)(10 mg/kg), and tested four hours after for reduced allodynia in response to SNC-80. […] Mechanical hyperalgesia was tested in a CFA model for chronic pain. After baseline recordings, mice were injected with CFA (13 μl, intraplantar) and were tested 72 hours later. On the test day, mice received either bpv(phen)(10 mg/kg SC) or vehicle. […]
as §1, with “As shown next in FIG. 12 (left),” for “In this experiment,”

male C57BL6J mice [2] = test: Warm water tail withdrawal assay (thermal nociception)
Method: The first three graphs in FIG. 2 show the function response of DOR on the surface. An EPAC FRET sensor was used with live cell imaging under physiologic conditions of 37° C. The modulation of the cAMP activity was determined by performing a ratiometric analysis of an the donor fluorophore (Cyan Fluorescent Protein) image divided by the FRET image yielding a blue color for low cAMP and red for high cAMP. DOR was concomitantly visualized by fluorescent tagging. […] The two images on the bottom-right of FIG. 2 show data in an experiment in which mechanical allodynia and tail withdrawal latency was performed in male C57BL6J mice 9-10 weeks old to determine the effects of the DOR agonist SNC-80 in the presence or absence of PTEN inhibition. […] All mice received SNC-80 (10 mg/kg IP). Additionally, pretreatment of mice with the PTEN inhibitor bpv(Phen) increased the antinociceptive effect of the DOR agonist SNC-80. Together, these methods can be used for stimulated DOR delivery as a convergent strategy for improving the efficacy of DOR agonists.
as §2, with “Four hours post-injection, tail immersion responses were determined and mice were injected with vehicle or SNC80 (10 mg/kg IP).” left out, “pain.” for “pain. After baseline recordings, mice were injected with CFA (13 μl, intraplantar) and were tested 72 hours later. On the test day, mice received either bpv(phen)(10 mg/kg SC) or vehicle.”
As shown next in FIG. 12 (left), thermal nociception was determined by using the warm water tail withdrawal assay, with a cut-off of 12 s at 52.5° C. water temperature. […]

[3] = 2 hour pretreatment with bpV(phen) 10 mg/kg, SNC-80 10 mg/kg IP, versus vehicle

O.O.O.OO.OO.[K+].[OH-].[V].c1cnc2c(c1)ccc1cccnc12 [bpV(phen)]
mechanical allodynia (threshold) with SNC-80 (male C57BL6J mice [1]; [3]): increased compared to vehicle control treated mice
reduced allodynia in response to SNC-80 (male C57BL6J mice [1]; bpv(phen) 10 mg/kg, tested four hours after): showed a response
mechanical hyperalgesia response to SNC 80 (mice): showed a response to SNC80
tail withdrawal latency with SNC-80 (male C57BL6J mice [2]; [3]): increased compared to vehicle control treated mice
analgesic response to PTEN inhibition alone (male C57BL6J mice [2]; bpV(phen) without SNC-80, mechanical allodynia and tail withdrawal): did not induce an analgesic response
tail immersion response versus baseline without SNC80 (male C57BL6J mice [2]; vehicle or bpv(phen) 10 mg/kg SC, no SNC80, 52.5° C., tested every 15 minutes for 90 minutes): did not show any significant deviation from the baseline
